Source: US10314307B2, “(S)-abscisic acid derivatives for improving plant stress tolerance” (Valent BioSciences Corporation, priority 2015, dated 2019)

Legend:
Type in all cases: in vivo
[1] = system: corn seed of a common inbred parental line; test: Corn plant emergence after seed treatment; conditions: for Additional delay in emergence in comparison with S-ABA: 80 μg/seed rate; for Relative potency of S-ABA, dose required to delay the median emergence time by two days: regression; for Delay in Median Emergence Time Compared to Control / Median Time to Emergence: 20.5° C.
Procedure: Corn seed of a common inbred parental line were treated using standard seed treatment equipment with water (control), 40 μg, 80 μg or 160 μg/seed S-ABA, 10 μg, 20 μg, 40 μg or 80 μg/seed 3′-methyl-(S)-abscisic acid, or 10 μg, 20 μg, 40 μg or 80 μg/seed 3′-propargyl-(S)-abscisic acid. Post treatment, the seeds were planted in 12×3×2″ plastic boxes containing one kilogram of sieved, pre-moistened field soil. Fifty seeds were planted in each box at three centimeter depth and two replicate boxes per treatment at 20.5° C. under constant illumination. Two replications of the experiment were incubated under constant light in a 20.5° C. growth chamber. Emergence counts were recorded almost daily until seedling emergence had ceased (42 days). Daily counts were converted to proportions of the final emergence to estimate the median emergence time for each box.

[2] = system: Cucumber plants cv. ‘Straight Eight’; test: Cucumber seedling chilling; set-up: key to New Growth Rating: 0 = No new growth; 1 = some new growth; 2 = new leaves; conditions: for New Growth Rating / Percent Leaf Area Affected: foliar spray 100 mg/liter, 300 ug/plant, 96 hours at 4° C., rated after 48 hours recovery
Procedure: In these studies, 3′-methyl-(S)-abscisic acid was compared with (S)-abscisic acid on cucumber seedlings for prevention of chilling damage. Cucumber plants cv. ‘Straight Eight’ were grown for two weeks at 25° C. and were size matched into groups of three plants. Each group was sprayed with water+0.05% non-ionic surfactant (control), 100 ppm 3′-methyl-(S)-abscisic acid and surfactant, or 100 ppm S-ABA and surfactant until wet, respectively. For the spray solutions, 3′-methyl-(S)-abscisic acid was dissolved in 0.5% by volume DMSO in water. Following the foliar treatment, plants were held for 48 hours at room temperature, then subjected to 4° C. for 96 hours, and then returned to 25° C. After the plants had been allowed to recover from the chilling treatments for 48 hours, the plants were rated for percent leaf area affected and new growth.

[3] = system: Tobacco plants cv. Xanthi-nc; test: Tobacco plants drought assay; conditions: for Percent of plants recovered 3 days after re-watering: re-watered after 18 days of water withdrawal
Procedure: Tobacco plants cv. Xanthi-nc were grown for six weeks at 25° C. and were size matched into groups of four. Each plant group was drench-treated with 10 mL of water containing 0.5% DMSO (control), 0.3 mg, 1.0 mg or 3.0 mg/plant 3′-methyl-(S)-abscisic acid, or 0.3 mg, 1.0 mg or 3.0 mg/plant S-ABA, respectively. The plants were kept in the greenhouse and not watered, simulating drought conditions. After 18 days of water withdrawal, the plants in all treatment groups wilted. At that point, all the plants were watered again. The number of plants that wilted during each day of water withdrawal and the number of plants that recovered following the re-watering were recorded.

crop plants = test: Mitigation of drought and chilling stress on crop plants (summary statement)

Structure (SMILES)	Additional delay in emergence in comparison with S-ABA [1]	Relative potency of S-ABA, dose required to delay the median emergence time by two days [1]	Delay in Median Emergence Time Compared to Control ([1]; seed treatment 10 μg/seed)	Median Time to Emergence ([1]; seed treatment 10 μg/seed)	Delay in Median Emergence Time Compared to Control ([1]; seed treatment 20 μg/seed)	Median Time to Emergence ([1]; seed treatment 20 μg/seed)	Delay in Median Emergence Time Compared to Control ([1]; seed treatment 40 μg/seed)	Median Time to Emergence ([1]; seed treatment 40 μg/seed)	Delay in Median Emergence Time Compared to Control ([1]; seed treatment 80 μg/seed)	Median Time to Emergence ([1]; seed treatment 80 μg/seed)	New Growth Rating [2]	Percent Leaf Area Affected [2]	Percent of non-wilted plans on days after drench treatment and drought initiation, Day 8 ([3]; 0.3 mg/plant drench)	Percent of non-wilted plans on days after drench treatment and drought initiation, Day 10 ([3]; 0.3 mg/plant drench)	Percent of non-wilted plans on days after drench treatment and drought initiation, Day 12 ([3]; 0.3 mg/plant drench)	Percent of non-wilted plans on days after drench treatment and drought initiation, Day 14 ([3]; 0.3 mg/plant drench)	Percent of non-wilted plans on days after drench treatment and drought initiation, Day 16 ([3]; 0.3 mg/plant drench)	Percent of non-wilted plans on days after drench treatment and drought initiation, Day 18 ([3]; 0.3 mg/plant drench)	Percent of plants recovered 3 days after re-watering ([3]; 0.3 mg/plant drench)	Percent of non-wilted plans on days after drench treatment and drought initiation, Day 8 ([3]; 1 mg/plant drench)	also measured
C#CCC1=C(C)[C@](O)(/C=C/C(C)=C\C(=O)O)C(C)(C)CC1=O [3′-propargyl-(S)-ABA, (2Z,4E)-5-((S)-1-hydroxy-2,6,6-trimethyl-4-oxo-3-(prop-2-yn-1-yl)cyclohex-2-en-1-yl)-3-methylpenta-2,4-dienoic acid]	14.3 calendar days	2.6 times	8.6 days	13.4 days	11.3 days	16.2 days	16.2 days	21.0 days	22.4 days	27.3 days	–	–	–	–	–	–	–	–	–	–	–
CC1=C(C)[C@](O)(/C=C/C(C)=C\C(=O)O)C(C)(C)CC1=O [3′-methyl-(S)-ABA, (2Z,4E)-5-((S)-1-hydroxy-2,3,6,6-tetramethyl-4-oxocyclohex-2-en-1-yl)-3-methylpenta-2,4-dienoic acid]	5.6 calendar days	2.2 times	4.9 days	9.7 days	7.9 days	12.7 days	11.1 days	16.0 days	13.8 days	18.6 days	2	16.67%	100%	100%	83%	33%	0%	0%	0%	100%	Mitigating chilling damage compared with S-ABA ([2]; 100 ppm foliar spray, chilling at 4° C.): more effective than S-ABA; Percent of non-wilted plans on days after drench treatment and drought initiation, Day 10 ([3]; 1 mg/plant drench): 100%; Percent of non-wilted plans on days after drench treatment and drought initiation, Day 12 ([3]; 1 mg/plant drench): 100%; Percent of non-wilted plans on days after drench treatment and drought initiation, Day 14 ([3]; 1 mg/plant drench): 83%; Percent of non-wilted plans on days after drench treatment and drought initiation, Day 16 ([3]; 1 mg/plant drench): 67%; Percent of non-wilted plans on days after drench treatment and drought initiation, Day 18 ([3]; 1 mg/plant drench): 0%; Percent of plants recovered 3 days after re-watering ([3]; 1 mg/plant drench): 33%; Percent of non-wilted plans on days after drench treatment and drought initiation, Day 8 ([3]; 3 mg/plant drench): 100%; Percent of non-wilted plans on days after drench treatment and drought initiation, Day 10 ([3]; 3 mg/plant drench): 100%; Percent of non-wilted plans on days after drench treatment and drought initiation, Day 12 ([3]; 3 mg/plant drench): 100%; Percent of non-wilted plans on days after drench treatment and drought initiation, Day 14 ([3]; 3 mg/plant drench): 100%; Percent of non-wilted plans on days after drench treatment and drought initiation, Day 16 ([3]; 3 mg/plant drench): 83%; Percent of non-wilted plans on days after drench treatment and drought initiation, Day 18 ([3]; 3 mg/plant drench): 0%; Percent of plants recovered 3 days after re-watering ([3]; 3 mg/plant drench): 83%; Percent of plants recovered 3 days after re-watering ([3]; 3 mg/plant drench, listed as 3′-methyl-(S)-abscisic acid): 83%; Drought tolerance compared to the untreated control or the highest amount (3.0 mg) of S-ABA ([3]; lowest amount (0.3 mg)): superior drought tolerance; Effectiveness relative to S-ABA when applied to crop plants to mitigate drought and chilling stress (crop plants): from about two to about ten times as effective as S-ABA
CC1=CC(=O)CC(C)(C)[C@@]1(O)/C=C/C(C)=C/C(=O)O [S-ABA, (S)-abscisic acid]	–	–	–	–	–	–	5.6 days	10.5 days	8.2 days	13.0 days	1	33.33%	100%	100%	17%	0%	0%	0%	0%	100%	Percent of non-wilted plans on days after drench treatment and drought initiation, Day 10 ([3]; 1 mg/plant drench): 100%; Percent of non-wilted plans on days after drench treatment and drought initiation, Day 12 ([3]; 1 mg/plant drench): 50%; Percent of non-wilted plans on days after drench treatment and drought initiation, Day 14 ([3]; 1 mg/plant drench): 0%; Percent of non-wilted plans on days after drench treatment and drought initiation, Day 16 ([3]; 1 mg/plant drench): 0%; Percent of non-wilted plans on days after drench treatment and drought initiation, Day 18 ([3]; 1 mg/plant drench): 0%; Percent of plants recovered 3 days after re-watering ([3]; 1 mg/plant drench): 0%; Percent of non-wilted plans on days after drench treatment and drought initiation, Day 8 ([3]; 3 mg/plant drench): 100%; Percent of non-wilted plans on days after drench treatment and drought initiation, Day 10 ([3]; 3 mg/plant drench): 100%; Percent of non-wilted plans on days after drench treatment and drought initiation, Day 12 ([3]; 3 mg/plant drench): 67%; Percent of non-wilted plans on days after drench treatment and drought initiation, Day 14 ([3]; 3 mg/plant drench): 0%; Percent of non-wilted plans on days after drench treatment and drought initiation, Day 16 ([3]; 3 mg/plant drench): 0%; Percent of non-wilted plans on days after drench treatment and drought initiation, Day 18 ([3]; 3 mg/plant drench): 0%; Percent of plants recovered 3 days after re-watering ([3]; 3 mg/plant drench): 0%; Plants recovered once they were watered ([3]; all S-ABA doses (0.3, 1.0, 3.0 mg/plant)): none; Delay in Median Emergence Time Compared to Control ([1]; seed treatment 160 μg/seed): 9.7 days; Median Time to Emergence ([1]; seed treatment 160 μg/seed): 14.6 days
